In patent publication US20240197750A1, “CEFTIBUTEN DOSING REGIMENS” (QPEX Biopharma, Inc., priority 2021, published 2024):

Tests used:
[1] = Pharmacokinetics of single and multiple oral doses of ceftibuten in healthy adult subjects; format: in vivo, human; conditions: for dose proportionality of exposure (Cmax, AUC0-12, AUC0-∞): doses of 400, 600 and 800 mg of ceftibuten
Description: (§1) A double-blind, randomized, placebo-controlled, sequential ascending single- and multiple dose study of ceftibuten in healthy adult subjects was conducted. There were four cohorts of 10 subjects each who received both single and multiple oral doses (8 active and 2 placebo).
Dose proportionality was examined graphically and using an ANOVA test of the dose-normalized Cmax, AUC0-12 and AUC0-∞ values. […] The AUC0-12 exposure of cis-ceftibuten is shown in FIG. 1 and the AUC0-12 exposure of trans-ceftibuten is shown in FIG. 2, showing that increases were dose proportional.

[2] = tested on: 99 strains of Enterobacterales; assay: Resistance development study: mutant prevention concentration (MPC) of Compound 1 with ceftibuten; format: cell-based
Description: 99 strains of Enterobacterales were used in resistance development studies using ceftibuten at 1 or 2 μg/ml in combination with various concentrations of the following β-lactamase inhibitor:
Compound 1 is described in PCT Publication No. WO 2018/005662, which is incorporated herein by reference in its entirety. Concentrations of Compound 1 included 1, 2, 4 and 8 μg/ml. The goal of the study was to identify the concentration of Compound 1 (MPC, mutant prevention concentration) that will prevent appearance of mutants at two different concentrations of ceftibuten.

[3] = Safety of single and multiple ascending oral doses of ceftibuten in healthy adult subjects; format: in vivo
Description: as §1
The event of nausea occurred in one subject in the SAD period following single administration of ceftibuten and the event of […] occurred in one subject in the MAD period following administration of the ceftibuten. […] The nausea was considered to be moderate in severity and diarrhea considered to be mild in severity with both events deemed by the investigator to be related to the study drug. The nausea persisted from Day 1 dose (SAD) until after Day 4 morning dose (MAD), despite treatment with concomitant medications. […] The incidence of treatment-related TEAEs was similar in the 400 mg (1 [12.5%] of 8 subjects) and 600 mg (2 [25.0%] of 8 subjects) ceftibuten and Pooled Placebo groups (3 [37.5%] of 8 subjects). […] The highest incidence was reported in the highest ceftibuten dose (800 mg). The most common gastrointestinal TEAEs in the 800 mg group during the MAD period were nausea in 4 out of 16 subjects (25.0%), diarrhea in 4 of 16 (25.0%), abdominal pain in 3 of 16 (18.8%), upper abdominal pain in 3 of 16 (18.8%) and abdominal discomfort in 2 of 16 subjects (12.5%). Most Gastrointestinal Disorder TEAEs were transient and mild in severity with no intervention required. […] All events were asymptomatic, resolved spontaneously after the completion of study treatment, and were not associated with elevations of alkaline phosphatase or bilirubin. • There was no trend in abnormalities that were NCS in hematology, coagulation, or urinalysis parameters.

[4] = multiple oral doses 400 mg ceftibuten BID
[5] = multiple oral doses 600 mg ceftibuten BID
[6] = multiple oral doses 800 mg ceftibuten BID
[7] = single oral dose 400 mg ceftibuten
[8] = single oral dose 600 mg ceftibuten
[9] = single oral dose 800 mg ceftibuten

| Structure (SMILES) | terminal half-life ([1]; 400-800 mg ceftibuten oral) [h] | time of peak plasma concentration post-dose ([1]; 400-800 mg ceftibuten oral) [h] | urinary recovery, % of the administered dose ([1]; after multiple doses) | urinary recovery, % of the administered dose ([1]; after single doses) | dose proportionality of exposure (Cmax, AUC0-12, AUC0-∞) [1] | mean maximum plasma concentration [1, 4] [µg/mL] | mean maximum plasma concentration [1, 5] [µg/mL] | mean maximum plasma concentration [1, 6] [µg/mL] | mean maximum plasma concentration [1, 7] [µg/mL] | mean maximum plasma concentration [1, 8] [µg/mL] | mean maximum plasma concentration [1, 9] [µg/mL] | further results |
| --- | --- | --- | --- | --- | --- | --- | --- | --- | --- | --- | --- | --- |
| Nc1nc(/C(=C/CC(=O)O)C(=O)N[C@@H]2C(=O)N3C(C(=O)O)=CCS[C@H]23)cs1 (relative stereo) [cis-ceftibuten] | 2.3 to 3.1 | 2.3 to 3.0 | 75.8-100% | 59.5-86.9% | increased proportionally | 21.7 | 28.1 | 38.8 | 17.6 | 24.1 | 28.1 | renal clearance ([1]; 400-800 mg ceftibuten oral): 2.9 to 4.2 L/h; total body clearance ([1]; 400-800 mg ceftibuten oral): 3.9 to 5.0 L/h |
| Nc1nc(/C(=C\CC(=O)O)C(=O)N[C@@H]2C(=O)N3C(C(=O)O)=CCS[C@H]23)cs1 (relative stereo) [trans-ceftibuten] | 3.0 to 3.6 | 3.3 to 4.8 | 14.1-16.8% | 9.3-12.5% | increased proportionally | 1.4 | 1.9 | 2.8 | 1.1 | 1.5 | 2.2 |  |
| O=C([O-])c1c(F)ccc2c1O[B-](O)(O)[C@@H]1C[C@H]21.[Na+].[Na+] [Compound 1] |  |  |  |  |  |  |  |  |  |  |  | % Strains with Compound 1 MPC <= 4 ug/ml ([2]; ceftibuten at 1 μg/ml, strains with Ceftibuten/Compound 1 MIC 0.125 (20 strains)): 90.0%; % Strains with Compound 1 MPC <= 4 ug/ml ([2]; ceftibuten at 1 μg/ml, strains with Ceftibuten/Compound 1 MIC 0.25 (16 strains)): 56.3%; % Strains with Compound 1 MPC <= 4 ug/ml ([2]; ceftibuten at 1 μg/ml, strains with Ceftibuten/Compound 1 MIC 0.5 (14 strains)): 21.4%; % Strains with Compound 1 MPC <= 4 ug/ml ([2]; ceftibuten at 1 μg/ml, strains with Ceftibuten/Compound 1 MIC 1 (12 strains)): 8.3%; % Strains with Compound 1 MPC <= 4 ug/ml ([2]; ceftibuten at 1 μg/ml, strains with Ceftibuten/Compound 1 MIC 2 (7 strains)): 28.6%; % Strains with Compound 1 MPC <= 4 ug/ml ([2]; ceftibuten at 1 μg/ml, strains with Ceftibuten/Compound 1 MIC <=0.06 (30 strains)): 96.7%; % Strains with Compound 1 MPC <= 4 ug/ml ([2]; ceftibuten at 2 μg/ml, strains with Ceftibuten/Compound 1 MIC 0.125 (20 strains)): 95.0%; % Strains with Compound 1 MPC <= 4 ug/ml ([2]; ceftibuten at 2 μg/ml, strains with Ceftibuten/Compound 1 MIC 0.25 (16 strains)): 87.5%; % Strains with Compound 1 MPC <= 4 ug/ml ([2]; ceftibuten at 2 μg/ml, strains with Ceftibuten/Compound 1 MIC 0.5 (14 strains)): 57.1%; % Strains with Compound 1 MPC <= 4 ug/ml ([2]; ceftibuten at 2 μg/ml, strains with Ceftibuten/Compound 1 MIC 1 (12 strains)): 16.7%; % Strains with Compound 1 MPC <= 4 ug/ml ([2]; ceftibuten at 2 μg/ml, strains with Ceftibuten/Compound 1 MIC 2 (7 strains)): 28.6%; % Strains with Compound 1 MPC <= 4 ug/ml ([2]; ceftibuten at 2 μg/ml, strains with Ceftibuten/Compound 1 MIC <=0.06 (30 strains)): 100.0% |
| Nc1nc(/C(=C/CC(=O)O)C(=O)N[C@@H]2C(=O)N3C(C(=O)O)=CCS[C@H]23)cs1 [ceftibuten] |  |  |  |  |  |  |  |  |  |  |  | frequency of reported TEAEs versus dose ([3]; MAD period, 400-800 mg BID): did not increase with increasing ceftibuten dose; serious, severe, life-threatening TEAEs or TEAEs resulting in death ([3]; SAD and MAD periods): no serious, severe, life-threatening TEAEs, or TEAEs resulting in death; frequency of reported TEAEs versus dose ([3]; SAD period, 400-800 mg): did not increase with increasing ceftibuten dose; ALT elevations ([3]; human, in vivo): incidence and severity of which did not increase with increasing ceftibuten dose; abnormalities in ECG parameters or physical examination ([3]; human, in vivo): no CS abnormalities; number of TEAEs reported ([3]; human, in vivo): 44; severity of TEAEs ([3]; human, in vivo): All TEAEs were mild, regardless of causality, with the exception of 2 TEAEs; vital sign parameters (blood pressure, pulse rate, body temperature, respiratory rate) ([3]; human, in vivo): no trends in changes from Baseline |
